Results on eleven molecules are retold here after ChEMBL document CHEMBL3991601, “The target landscape of clinical kinase drugs” (Science, 2017).

The structures appear in SMILES notation. Calls of active or inactive are those of the source.

Test [1] deals with Tyrosine-protein kinase ABL2 (Homo sapiens, UniProt P42684).
Test [2] addresses Bone morphogenetic protein receptor type-1A (Homo sapiens, UniProt P36894).
The target in test [3] is Tyrosine-protein kinase CSK (Homo sapiens, UniProt P41240).
Chain of Tyrosine-protein kinase CSK (P41240 whole entry): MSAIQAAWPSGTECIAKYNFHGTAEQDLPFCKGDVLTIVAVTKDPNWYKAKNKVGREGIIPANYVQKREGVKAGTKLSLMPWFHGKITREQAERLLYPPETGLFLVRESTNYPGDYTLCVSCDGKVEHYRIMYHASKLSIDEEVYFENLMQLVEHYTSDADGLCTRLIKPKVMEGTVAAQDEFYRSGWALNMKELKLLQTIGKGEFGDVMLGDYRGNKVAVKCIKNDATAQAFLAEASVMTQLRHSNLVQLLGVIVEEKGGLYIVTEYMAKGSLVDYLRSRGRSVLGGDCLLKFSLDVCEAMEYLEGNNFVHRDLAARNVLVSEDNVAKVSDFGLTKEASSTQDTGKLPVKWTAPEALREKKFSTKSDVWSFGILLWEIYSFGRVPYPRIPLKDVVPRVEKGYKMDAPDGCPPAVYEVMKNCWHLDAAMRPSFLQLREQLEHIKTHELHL
Test [4] concerns the target T1, Cytochrome c1, heme protein, mitochondrial (Homo sapiens, UniProt P08574).
T1 sequence (P08574 whole entry): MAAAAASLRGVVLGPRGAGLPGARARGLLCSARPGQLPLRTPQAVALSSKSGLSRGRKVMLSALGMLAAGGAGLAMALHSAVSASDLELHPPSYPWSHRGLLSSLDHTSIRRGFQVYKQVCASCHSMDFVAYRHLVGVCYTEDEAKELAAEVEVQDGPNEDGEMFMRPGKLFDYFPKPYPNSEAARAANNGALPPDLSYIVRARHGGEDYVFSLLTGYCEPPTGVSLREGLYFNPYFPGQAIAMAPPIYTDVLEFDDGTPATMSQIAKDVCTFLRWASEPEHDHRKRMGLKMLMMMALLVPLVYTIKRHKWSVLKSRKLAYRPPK

Test [5] deals with Tyrosine-protein kinase Fyn (Homo sapiens, UniProt P06241).
Chain of Tyrosine-protein kinase Fyn (P06241 whole entry): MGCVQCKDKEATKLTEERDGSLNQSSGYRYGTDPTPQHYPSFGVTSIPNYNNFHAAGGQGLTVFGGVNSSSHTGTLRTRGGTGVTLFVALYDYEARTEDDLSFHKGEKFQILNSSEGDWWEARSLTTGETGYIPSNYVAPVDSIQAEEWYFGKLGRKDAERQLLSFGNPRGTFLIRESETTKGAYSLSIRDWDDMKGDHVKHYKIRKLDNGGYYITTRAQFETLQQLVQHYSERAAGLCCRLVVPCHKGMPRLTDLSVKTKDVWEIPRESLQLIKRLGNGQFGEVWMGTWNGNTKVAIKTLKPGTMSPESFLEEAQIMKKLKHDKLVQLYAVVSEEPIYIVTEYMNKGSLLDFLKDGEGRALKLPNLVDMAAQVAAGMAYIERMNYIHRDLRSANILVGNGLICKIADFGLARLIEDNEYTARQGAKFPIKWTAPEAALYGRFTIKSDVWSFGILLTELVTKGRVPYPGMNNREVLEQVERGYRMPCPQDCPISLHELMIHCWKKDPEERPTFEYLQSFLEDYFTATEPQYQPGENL
In another test the target is T2, Scaffold protein ILK (Homo sapiens, UniProt Q13418).
T2 sequence (Q13418 whole entry): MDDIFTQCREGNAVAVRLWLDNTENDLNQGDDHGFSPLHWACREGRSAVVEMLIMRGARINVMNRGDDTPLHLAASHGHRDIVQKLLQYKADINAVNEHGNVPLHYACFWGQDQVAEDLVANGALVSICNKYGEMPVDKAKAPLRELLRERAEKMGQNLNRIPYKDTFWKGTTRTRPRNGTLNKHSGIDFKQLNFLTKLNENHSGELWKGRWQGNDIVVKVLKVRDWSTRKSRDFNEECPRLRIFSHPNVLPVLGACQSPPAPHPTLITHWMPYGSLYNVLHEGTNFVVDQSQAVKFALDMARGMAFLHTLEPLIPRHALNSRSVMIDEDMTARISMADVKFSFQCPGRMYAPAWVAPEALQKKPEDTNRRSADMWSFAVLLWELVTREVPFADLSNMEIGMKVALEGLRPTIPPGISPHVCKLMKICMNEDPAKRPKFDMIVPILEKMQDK

Test [6] concerns the target T3, Serine/threonine-protein kinase LATS1 (Homo sapiens, UniProt O95835).
T3 sequence (O95835 whole entry): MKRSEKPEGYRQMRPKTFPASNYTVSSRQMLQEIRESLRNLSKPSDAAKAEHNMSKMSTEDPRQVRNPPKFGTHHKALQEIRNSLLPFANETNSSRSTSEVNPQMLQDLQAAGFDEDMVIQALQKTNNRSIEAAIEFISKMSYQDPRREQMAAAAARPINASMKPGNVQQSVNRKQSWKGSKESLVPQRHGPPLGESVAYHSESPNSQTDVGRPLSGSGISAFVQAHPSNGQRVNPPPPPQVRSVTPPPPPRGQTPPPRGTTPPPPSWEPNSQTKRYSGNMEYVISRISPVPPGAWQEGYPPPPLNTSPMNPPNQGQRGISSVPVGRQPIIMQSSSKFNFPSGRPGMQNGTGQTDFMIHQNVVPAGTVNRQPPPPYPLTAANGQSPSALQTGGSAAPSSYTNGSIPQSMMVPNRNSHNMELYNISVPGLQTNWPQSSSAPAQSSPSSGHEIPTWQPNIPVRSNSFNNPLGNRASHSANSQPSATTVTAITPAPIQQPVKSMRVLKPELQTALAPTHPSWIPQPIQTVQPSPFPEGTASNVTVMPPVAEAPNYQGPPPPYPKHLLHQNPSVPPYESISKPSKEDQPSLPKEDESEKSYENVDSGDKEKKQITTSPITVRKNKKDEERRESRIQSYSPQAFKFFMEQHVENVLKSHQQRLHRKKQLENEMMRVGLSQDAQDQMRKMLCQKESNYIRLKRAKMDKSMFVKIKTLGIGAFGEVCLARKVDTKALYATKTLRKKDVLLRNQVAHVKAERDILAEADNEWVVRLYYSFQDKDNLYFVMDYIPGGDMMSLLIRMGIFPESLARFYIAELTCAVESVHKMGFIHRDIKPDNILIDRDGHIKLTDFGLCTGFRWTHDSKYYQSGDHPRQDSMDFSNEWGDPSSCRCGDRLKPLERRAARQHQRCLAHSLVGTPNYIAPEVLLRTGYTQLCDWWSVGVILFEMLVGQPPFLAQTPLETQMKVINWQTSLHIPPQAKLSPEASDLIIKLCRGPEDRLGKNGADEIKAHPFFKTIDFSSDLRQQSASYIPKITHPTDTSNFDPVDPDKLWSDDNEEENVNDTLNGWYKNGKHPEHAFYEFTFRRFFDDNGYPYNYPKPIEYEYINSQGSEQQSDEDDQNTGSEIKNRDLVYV

Test [7] deals with S-adenosylmethionine synthase isoform type-2 (Homo sapiens, UniProt P31153).
Chain of S-adenosylmethionine synthase isoform type-2 (P31153 whole entry, canonical isoform): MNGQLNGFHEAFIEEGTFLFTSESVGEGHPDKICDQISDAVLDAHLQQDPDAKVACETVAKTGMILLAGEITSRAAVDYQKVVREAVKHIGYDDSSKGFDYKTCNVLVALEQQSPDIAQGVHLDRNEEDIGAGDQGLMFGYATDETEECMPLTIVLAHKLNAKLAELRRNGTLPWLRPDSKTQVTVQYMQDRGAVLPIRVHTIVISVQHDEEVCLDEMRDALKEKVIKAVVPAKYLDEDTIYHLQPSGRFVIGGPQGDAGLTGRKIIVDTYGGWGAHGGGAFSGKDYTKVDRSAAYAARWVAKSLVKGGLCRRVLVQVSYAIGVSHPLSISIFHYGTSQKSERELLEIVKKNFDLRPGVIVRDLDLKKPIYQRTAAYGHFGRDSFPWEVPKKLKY
For another test, the target named is T4, ADP/ATP translocase 2 (Homo sapiens, UniProt P05141).
T4 sequence (P05141 whole entry): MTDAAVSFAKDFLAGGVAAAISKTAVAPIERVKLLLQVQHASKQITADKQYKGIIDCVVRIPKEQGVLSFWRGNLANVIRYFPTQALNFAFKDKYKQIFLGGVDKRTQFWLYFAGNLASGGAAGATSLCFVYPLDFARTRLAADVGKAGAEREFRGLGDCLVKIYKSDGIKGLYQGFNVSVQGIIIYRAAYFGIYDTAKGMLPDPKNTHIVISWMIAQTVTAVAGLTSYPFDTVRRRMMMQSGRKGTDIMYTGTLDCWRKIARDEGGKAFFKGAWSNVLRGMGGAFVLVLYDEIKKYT

In test [8] the target is Tyrosine-protein kinase Yes (Homo sapiens, UniProt P07947).
Chain of Tyrosine-protein kinase Yes (P07947 whole entry): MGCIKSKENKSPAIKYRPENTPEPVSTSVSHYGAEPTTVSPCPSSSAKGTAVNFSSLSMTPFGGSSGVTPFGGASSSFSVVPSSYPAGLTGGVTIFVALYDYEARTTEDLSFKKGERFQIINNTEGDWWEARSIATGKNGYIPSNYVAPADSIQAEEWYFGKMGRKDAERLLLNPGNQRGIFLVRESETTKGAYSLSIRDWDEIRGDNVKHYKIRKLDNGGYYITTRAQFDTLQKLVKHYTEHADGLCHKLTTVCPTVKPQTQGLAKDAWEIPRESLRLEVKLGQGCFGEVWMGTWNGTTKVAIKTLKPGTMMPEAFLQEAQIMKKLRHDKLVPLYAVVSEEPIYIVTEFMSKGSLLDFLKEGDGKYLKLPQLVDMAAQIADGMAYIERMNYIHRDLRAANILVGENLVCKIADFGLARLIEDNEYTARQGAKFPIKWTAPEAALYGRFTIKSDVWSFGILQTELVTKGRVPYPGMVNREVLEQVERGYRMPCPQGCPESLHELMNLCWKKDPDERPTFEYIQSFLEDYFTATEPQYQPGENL
Further: in the data inactive means no Kd found up to 30 µM.

Chain of Bone morphogenetic protein receptor type-1A (P36894 whole entry): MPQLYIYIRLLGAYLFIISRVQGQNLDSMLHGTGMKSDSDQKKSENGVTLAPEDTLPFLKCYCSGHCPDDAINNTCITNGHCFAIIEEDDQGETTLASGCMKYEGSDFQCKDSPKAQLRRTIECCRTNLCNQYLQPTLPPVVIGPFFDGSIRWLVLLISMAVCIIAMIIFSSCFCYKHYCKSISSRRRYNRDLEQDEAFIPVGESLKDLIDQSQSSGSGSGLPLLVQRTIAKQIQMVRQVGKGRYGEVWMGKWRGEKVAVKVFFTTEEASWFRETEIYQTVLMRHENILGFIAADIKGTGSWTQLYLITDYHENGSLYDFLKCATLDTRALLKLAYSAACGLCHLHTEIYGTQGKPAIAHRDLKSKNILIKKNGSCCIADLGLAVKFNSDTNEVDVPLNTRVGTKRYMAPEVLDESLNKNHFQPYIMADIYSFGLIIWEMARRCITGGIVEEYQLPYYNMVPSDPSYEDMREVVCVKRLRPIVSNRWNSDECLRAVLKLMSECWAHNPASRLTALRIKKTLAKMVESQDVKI
Chain of Tyrosine-protein kinase ABL2 (P42684 whole entry): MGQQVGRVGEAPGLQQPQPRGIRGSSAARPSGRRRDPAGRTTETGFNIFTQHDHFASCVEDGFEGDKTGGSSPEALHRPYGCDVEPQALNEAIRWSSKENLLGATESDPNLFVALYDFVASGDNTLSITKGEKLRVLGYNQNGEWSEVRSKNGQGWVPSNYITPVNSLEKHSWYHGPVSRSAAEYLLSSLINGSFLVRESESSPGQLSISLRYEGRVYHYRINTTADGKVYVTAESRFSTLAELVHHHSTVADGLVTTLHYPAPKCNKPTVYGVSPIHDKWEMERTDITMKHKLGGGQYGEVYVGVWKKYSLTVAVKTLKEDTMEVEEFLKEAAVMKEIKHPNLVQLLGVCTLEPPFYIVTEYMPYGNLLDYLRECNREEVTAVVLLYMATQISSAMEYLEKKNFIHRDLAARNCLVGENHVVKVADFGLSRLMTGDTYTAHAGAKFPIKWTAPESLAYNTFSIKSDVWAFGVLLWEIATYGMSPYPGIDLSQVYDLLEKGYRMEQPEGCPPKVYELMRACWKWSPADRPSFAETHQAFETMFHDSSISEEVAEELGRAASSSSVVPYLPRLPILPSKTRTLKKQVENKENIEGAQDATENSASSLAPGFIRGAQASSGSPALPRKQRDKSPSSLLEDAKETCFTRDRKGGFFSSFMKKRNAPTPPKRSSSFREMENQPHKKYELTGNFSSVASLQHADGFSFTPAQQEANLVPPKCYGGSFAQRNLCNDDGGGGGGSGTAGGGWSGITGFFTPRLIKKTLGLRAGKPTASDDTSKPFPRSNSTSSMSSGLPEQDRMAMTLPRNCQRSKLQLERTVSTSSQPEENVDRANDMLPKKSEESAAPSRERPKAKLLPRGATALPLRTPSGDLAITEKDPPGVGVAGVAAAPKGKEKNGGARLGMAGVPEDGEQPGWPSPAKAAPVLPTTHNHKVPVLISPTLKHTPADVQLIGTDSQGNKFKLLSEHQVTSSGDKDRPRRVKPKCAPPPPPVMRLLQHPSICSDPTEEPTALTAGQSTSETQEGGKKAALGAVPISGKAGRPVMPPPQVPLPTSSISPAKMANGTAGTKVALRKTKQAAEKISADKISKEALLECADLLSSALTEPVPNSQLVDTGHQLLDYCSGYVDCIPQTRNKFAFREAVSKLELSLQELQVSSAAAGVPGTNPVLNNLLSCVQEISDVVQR

What is called Kd is the constant that tells how readily two partners part at equilibrium. Turning to `CO[C@H]1C[C@@H]2CC[C@@H](C)[C@@](O)(O2)C(=O)C(=O)N2CCCC[C@H]2C(=O)O[C@H]([C@H](C)C[C@@H]2CC[C@@H](OCCO)[C@H](OC)C2)CC(=O)[C@H](C)/C=C(\C)[C@@H](O)[C@@H](OC)C(=O)[C@H](C)C[C@H](C)/C=C/C=C/C=C/1C` [EVEROLIMUS], the Kd (in test [1]; in test [2]; in test [3]; in [4]; in test [5]; at Scaffold protein ILK) was > 30 µM (inactive) throughout. Besides, the Kd (in test [6]; in test [7]; at ADP/ATP translocase 2; in test [8]) was > 30 µM (inactive) throughout.
For `CCCS(=O)(=O)Nc1ccc(F)c(C(=O)c2c[nH]c3ncc(-c4ccc(Cl)cc4)cc23)c1F` [VEMURAFENIB], the Kd (in test [1]; in [2]; in test [3]; in test [4]; in [5]; on Scaffold protein ILK) was > 30 µM (inactive) each time. For the same molecule, the Kd (in [6]; in test [7]; at ADP/ATP translocase 2; in test [8]) was > 30 µM (inactive) in each case.
For the molecule `O=C(Nc1ccc(-c2ccnc(Nc3ccc(N4CCOCC4)cc3)n2)cc1)C1CCCN1` (stereo not given) [XL-019], the Kd (in [1]; in [2]; in [3]; in test [4]; in test [5]; on Scaffold protein ILK) was > 30 µM (inactive) throughout. Also, the Kd in test [6] is 3.79 µM (active); in [7] it was > 30 µM (inactive); on ADP/ATP translocase 2, > 30 µM (inactive); in test [8] it was > 30 µM (inactive).
For `Cn1ncc(Cl)c1-c1cc(C(=O)N[C@H](CN)Cc2cccc(F)c2)sc1Cl` [AFURESERTIB], the Kd (in test [1]; in test [2]; in [3]; in test [4]; in test [5]; at Scaffold protein ILK) was > 30 µM (inactive) each time. The Kd (in test [6]; in [7]; at ADP/ATP translocase 2; in [8]) was > 30 µM (inactive) each time.
Turning to `CNC(=O)CN1CCC(Oc2cc3c(Nc4cccc(Cl)c4F)ncnc3cc2OC)CC1` [SAPITINIB], the Kd (in test [1]; in test [2]; in test [3]; in test [4]; in test [5]; on Scaffold protein ILK) was > 30 µM (inactive) in each case. For the same molecule, the Kd (in test [6]; in test [7]; on ADP/ATP translocase 2; in test [8]) was > 30 µM (inactive) in each case.
Regarding `CC(=O)Nc1cccc(-n2c(=O)n(C3CC3)c(=O)c3c(Nc4ccc(I)cc4F)n(C)c(=O)c(C)c32)c1` [TRAMETINIB], the Kd (in [1]; in [2]; in [3]; in test [4]; in test [5]; on Scaffold protein ILK) was > 30 µM (inactive) each time. Moreover, the Kd (in test [6]; in test [7]; at ADP/ATP translocase 2; in test [8]) was > 30 µM (inactive) each time.
For `COC(=O)N[C@@H](C)CNc1nccc(-c2cn(C(C)C)nc2-c2cc(Cl)cc(NS(C)(=O)=O)c2F)n1` [ENCORAFENIB], the Kd (in [1]; in test [2]; in test [3]; in [4]; in test [5]; at Scaffold protein ILK) was > 30 µM (inactive) in each case. For the same molecule, the Kd (in test [6]; in [7]; at ADP/ATP translocase 2; in [8]) was > 30 µM (inactive) each time.
On to `CNC(=O)c1ccc(-c2cnc3ncc(Cc4ccc5ncccc5c4)n3n2)cc1F` [CAPMATINIB], for which the Kd (in [1]; in test [2]; in [3]; in test [4]; in test [5]; at Scaffold protein ILK) was > 30 µM (inactive) throughout. Moreover, the Kd (in test [6]; in test [7]; at ADP/ATP translocase 2; in [8]) was > 30 µM (inactive) throughout.
In the case of `COC(=O)[C@@]1(O)C[C@H]2O[C@]1(C)n1c3ccccc3c3c4c(c5c6ccccc6n2c5c31)C(=O)NC4` [K-252A], the Kd (in test [1]; in test [2]; in test [3]; in test [4]; in test [5]; at Scaffold protein ILK) was > 30 µM (inactive) throughout. In addition, the Kd in test [6] was 0.067 µM (active); in [7], > 30 µM (inactive); at ADP/ATP translocase 2 it was > 30 µM (inactive); in test [8], > 30 µM (inactive).
Turning to `CCS(=O)(=O)N1CC(CC#N)(n2cc(-c3ncnc4[nH]ccc34)cn2)C1` [BARICITINIB], the Kd (in [1]; in test [2]; in test [3]; in test [4]; in test [5]; on Scaffold protein ILK) was > 30 µM (inactive) throughout. Moreover, the Kd (in test [6]; in [7]; on ADP/ATP translocase 2; in [8]) was > 30 µM (inactive) each time.
In the case of `CNS(=O)(=O)Nc1nccc(Cc2c(C)c3ccc(Oc4ncccn4)cc3oc2=O)c1F` [AVUTOMETINIB], the Kd (in test [1]; in [2]; in [3]; in test [4]; in test [5]; at Scaffold protein ILK) was > 30 µM (inactive) in each case. Also, the Kd (in test [6]; in [7]; at ADP/ATP translocase 2; in [8]) was > 30 µM (inactive) in each case.
